Source: patent US20230107642A1 (Erasca, Inc., priority 2020, published 2023)

target: T1, Cys12 of the KRAS 4B G12C protein (Homo sapiens, UniProt P01116, G12C); experiment: In vitro covalent adduct formation (CAF) assay, LC-MS intact mass; assay type: binding; details: 10 uM compound, 60 min
T1 construct: This protein contained 188 amino acids in total, including an N-terminal 6-Histidine tag; made in house; host or cells: E. coli BL21
Summary of the method: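 Percent covalent modification from intact-mass LC-MS, by relative free versus adducted protein (adducts within 1 Da of expected mass). Reaction: 10 μM compound with 5 μM E. coli-expressed, GDP-exchanged KRAS 4B G12C in TBS pH 7.4, 4% DMSO, 1 h at 22° C.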

| SMILES | % CAF 10 uM @ 60 min [%] |
| --- | --- |
| [2H]C([2H])([2H])OC[C@H]1CSc2c(-c3ccc(F)cc3)c(C(F)(F)F)cc3c(N4C[C@@H](C)N(C(=O)C=C)[C@@H](C)C4)nc(=O)n1c23 [Example 1413, (S)-7-((3S,5R)-4-acryloyl-3,5-dimethylpiperazin-1-yl)-10-(4-fluorophenyl)-3-((methoxy-d3)methyl)-9-(trifluoromethyl)-2,3-dihydro-5H-[1,4]thiazino[2,3,4-ij]quinazolin-5-one] | 95.1 |
| C=CC(=O)N1CCN(c2nc(=O)n3c4c(c(-c5ccc(F)c6cnn(C)c56)c(C(F)(F)F)cc24)SC[C@@H]3COC)CC1 (atropisomer, axis not shown) [Example 1392a, (3S,10S)-7-(4-acryloylpiperazin-1-yl)-10-(4-fluoro-1-methyl-1H-indazol-7-yl)-3-(methoxymethyl)-9-(trifluoromethyl)-2,3-dihydro-5H-[1,4]thiazino[2,3,4-ij]quinazolin-5-one] | 97.2 |
| C=CC(=O)N1C[C@H](C)N(c2nc(=O)n3c4c(c(-c5ccc(F)c(Cl)c5)c(C(F)(F)F)cc24)SC[C@@H]3CN2CCN(C3CC3)CC2)C[C@H]1C [Example 1387, (S)-7-((2S,5R)-4-acryloyl-2,5-dimethylpiperazin-1-yl)-10-(3-chloro-4-fluorophenyl)-3-((4-cyclopropylpiperazin-1-yl)methyl)-9-(trifluoromethyl)-2,3-dihydro-5H-[1,4]thiazino[2,3,4-ij]quinazolin-5-one] | 71 |
| C=CC(=O)N1[C@H](C)CN(c2nc(=O)n3c4c(c(-c5ccc(F)cc5)c(C(F)(F)F)cc24)SCC(CO)(CO)C3)C[C@@H]1C [Example 1430, 8-((3S,5R)-4-acryloyl-3,5-dimethylpiperazin-1-yl)-11-(4-fluorophenyl)-3,3-bis(hydroxymethyl)-10-(trifluoromethyl)-3,4-dihydro-2H,6H-[1,4]thiazepino[2,3,4-ij]quinazolin-6-one] | 93 |
| C=CC(=O)N1C2CCC1CN(c1nc(=O)n3c4c(c(-c5cc(Cl)c(F)cc5F)c(C(F)(F)F)cc14)SCC1(COC1)C3)C2 [Example 1402, (S)-8′-((1R,5S)-8-acryloyl-3,8-diazabicyclo[3.2.1]octan-3-yl)-11′-(5-chloro-2,4-difluorophenyl)-10′-(trifluoromethyl)-2′H,4′H,6′H-spiro[oxetane-3,3′-[1,4]thiazepino[2,3,4-ij]quinazolin-6′-one] | 6.8 |
| C=CC(=O)N1[C@H](C)CN(c2nc(=O)n3c4c(c(-c5ccc(F)cc5)c(C(F)(F)F)cc24)SC[C@@H]3COCC)C[C@@H]1C [Example 1415, (S)-7-((3S,5R)-4-acryloyl-3,5-dimethylpiperazin-1-yl)-3-(ethoxymethyl)-10-(4-fluorophenyl)-9-(trifluoromethyl)-2,3-dihydro-5H-[1,4]thiazino[2,3,4-ij]quinazolin-5-one] | 90.1 |

Next, values leading:

| % CAF 10 uM @ 60 min [%] | SMILES |
| --- | --- |
| 81 | C=CC(=O)N1C[C@H](C)N(c2nc(=O)n3c4c(c(-c5cc(Br)c(F)cc5F)c(C(F)(F)F)cc24)SCC2(COC2)C3)C[C@H]1C [Example 1436, 8′-((2S,5R)-4-acryloyl-2,5-dimethylpiperazin-1-yl)-11′-(5-bromo-2,4-difluorophenyl)-10′-(trifluoromethyl)-2′H,4′H,6′H-spiro[oxetane-3,3′-[1,4]thiazepino[2,3,4-ij]quinazolin]-6′-one] |
| 66 | C=CC(=O)N1C[C@H](C)N(c2nc(=O)n3c4c(c(-c5cc(Br)c(F)cc5F)c(C(F)(F)F)cc24)SCC2(CCOCC2)C3)C[C@H]1C [Example 1455, 8′-((2S,5R)-4-Acryloyl-2,5-dimethylpiperazin-1-yl)-11′-(5-bromo-2,4-difluorophenyl)-10′-(trifluoromethyl)-2,3,5,6-tetrahydro-2′H,4′H,6′H-spiro[pyran-4,3′-[1,4]thiazepino[2,3-4-ij]quinazolin]-6′-one] |
| 81.4 | C=CC(=O)N1[C@H](C)CN(c2nc(=O)n3c4c(c(-c5ccc(F)cc5F)c(C(F)(F)F)cc24)SC[C@@H]3CN(C)C)C[C@@H]1C (atropisomer, axis not shown) [Example 1325, (3S,10S)-7-((3S,5R)-4-acryloyl-3,5-dimethylpiperazin-1-yl)-10-(2,4-difluorophenyl)-3-((dimethylamino)methyl)-9-(trifluoromethyl)-2,3-dihydro-5H-[1,4]thiazino[2,3,4-ij]quinazolin-5-one] |
| 97 | [2H]C1([2H])N(C(=O)C=C)C([2H])([2H])C([2H])([2H])N(c2nc(=O)n3c4c(c(-c5cc(Cl)c(F)cc5F)c(C(F)(F)F)cc24)SCC2(COC2)C3)C1([2H])[2H] [Example 1309, 8′-(4-acryloylpiperazin-1-yl-2,2,3,3,5,5,6,6-d8)-11′-(5-chloro-2,4-difluorophenyl)-10′-(trifluoromethyl)-2′H,4′H,6′H-spiro[oxetane-3,3′-[1,4]thiazepino[2,3,4-ij]quinazolin]-6′-one] |
| 98 | C=CC(=O)N1CCN(c2nc(=O)n3c4c(c(-c5cc(Cl)c(F)cc5F)c(C(F)(F)F)cc24)SC[C@@H]3COCOC)CC1 (atropisomer, axis not shown) [Example 1364] |
| 95.1 | [2H]C([2H])([2H])OC[C@H]1CSc2c(-c3ccc(F)cc3F)c(C(F)(F)F)cc3c(N4C[C@@H](C)N(C(=O)C=C)[C@@H](C)C4)nc(=O)n1c23 (atropisomer, axis not shown) [Example 1423, (3S,10R)-7-((3S,5R)-4-acryloyl-3,5-dimethylpiperazin-1-yl)-10-(2,4-difluorophenyl)-3-((methoxy-d3)methyl)-9-(trifluoromethyl)-2,3-dihydro-5H-[1,4]thiazino[2,3,4-ij]quinazolin-5-one] |
| 85.4 | C=CC(=O)N1[C@H](C)CN(c2nc(=O)n3c4c(c(-c5cccc6cnn(C)c56)c(C(F)(F)F)cc24)SC[C@@H]3CN2CCN(C3CC3)CC2)C[C@@H]1C (atropisomer, axis not shown) [Example 1412, (3S,10S)-7-((3S,5R)-4-acryloyl-3,5-dimethylpiperazin-1-yl)-3-((4-cyclopropylpiperazin-1-yl)methyl)-10-(1-methyl-1H-indazol-7-yl)-9-(trifluoromethyl)-2,3-dihydro-5H-[1,4]thiazino[2,3,4-ij]quinazolin-5-one] |

same assay, conditions: 10 uM compound, 60 min incubation

| % CAF 10 uM @ 60 min [%] | SMILES |
| --- | --- |
| 72.7 | C=CC(=O)N1[C@H](C)CN(c2nc(=O)n3c4c(c(-c5cc(Cl)c(F)cc5F)c(C(F)(F)F)cc24)SC[C@@H](N2CCOCC2)C3)C[C@@H]1C (atropisomer, axis not shown) [Example 1135, (3S,11S)-8-((3S,5R)-4-acryloyl-3,5-dimethylpiperazin-1-yl)-11-(5-chloro-2,4-difluorophenyl)-3-morpholino-10-(trifluoromethyl)-3,4-dihydro-2H,6H-[1,4]thiazepino [2,3,4-ij]quinazolin-6-one] |
| 95.4 | C=CC(=O)N1C[C@H](C)N(c2nc(=O)n3c4c(c(-c5ccc(F)cc5)c(C(F)(F)F)cc24)SCC2(COC2)C3)C[C@H]1C [Example 1111, 8′-((2S,5R)-4-acryloyl-2,5-dimethylpiperazin-1-yl)-11′-(4-fluorophenyl)-10′-(trifluoromethyl)-2′H,4′H,6′H-spiro[oxetane-3,3′-[1,4]thiazepino [2,3,4-ij]quinazolin]-6′-one] |

same assay, conditions: 10 μM compound, after 1 hour

| CAF (% after 1 hour) [%] | SMILES |
| --- | --- |
| 97 | C=CC(=O)N1C[C@H](C)N(c2nc(=O)n3c4c(c(-c5ccc(F)cc5)c(C(F)(F)F)cc24)SC[C@@H](OC)C3)C[C@H]1C [Example 1202, (S)-8-((2S,5R)-4-acryloyl-2,5-dimethylpiperazin-1-yl)-11-(4-fluorophenyl)-3-methoxy-10-(trifluoromethyl)-3,4-dihydro-2H,6H-[1,4]thiazepino[2,3,4-ij]quinazolin-6-one] |
| 92 | C=CC(=O)N1[C@H](C)CN(c2nc(=O)n3c4c(c(-c5cc(Cl)c(F)cc5F)c(C(F)(F)F)cc24)SC[C@@H](OCC)C3)C[C@@H]1C [Example 1206, (3S)-8-((3S,5R)-4-acryloyl-3,5-dimethylpiperazin-1-yl)-11-(5-chloro-2,4-difluorophenyl)-3-ethoxy-10-(trifluoromethyl)-3,4-dihydro-2H,6H-[1,4]thiazepino[2,3,4-ij]quinazolin-6-one] |
| 66 | C=C(F)C(=O)N1[C@H](C)CN(c2nc(=O)n3c4c(c(-c5cc(Cl)c(F)cc5F)c(C(F)(F)F)cc24)SC[C@@H](OC)C3)C[C@@H]1C [Example 1218, (3S)-11-(5-Chloro-2,4-difluorophenyl)-8-((3S,5R)-4-(2-fluoroacryloyl)-3,5-dimethylpiperazin-1-yl)-3-methoxy-10-(trifluoromethyl)-3,4-dihydro-2H,6H-[1,4]thiazepino[2,3,4-ij]quinazolin-6-one] |

same assay, conditions: after 60 min

| CAF (% binding after 60 min) [%] | SMILES |
| --- | --- |
| 97 | C=CC(=O)N1CCN(c2nc(=O)n3c4c(c(-c5cc(Cl)c(F)cc5F)c(C(F)(F)F)cc24)SC[C@@H](OCCOC)C3)CC1 [Example 1023, (3S)-8-(4-acryloylpiperazin-1-yl)-11-(5-chloro-2,4-difluorophenyl)-3-(2-methoxyethoxy)-10-(trifluoromethyl)-3,4-dihydro-2H,6H-[1,4]thiazepino[2,3,4-ij]quinazolin-6-one] |
| 97 | C=CC(=O)N1CCN(c2nc(=O)n3c4c(c(-c5ccc(F)c(Cl)c5)c(C(F)(F)F)cc24)SC[C@H](OCCOC)C3)CC1 [Example 1020, (R)-8-(4-acryloylpiperazin-1-yl)-11-(3-chloro-4-fluorophenyl)-3-(2-methoxyethoxy)-10-(trifluoromethyl)-3,4-dihydro-2H,6H-[1,4]thiazepino[2,3,4-ij]quinazolin-6-one] |
